{"source": "patent US20110262352A1", "about": "“ARYL PIPERAZINE AND THEIR USE AS ALPHA2C ANTAGONISTS” (priority 2008, published 2011)", "key": {"human alpha2A receptors": {"target": "T1, human alpha2A receptors (Homo sapiens, UniProt P08913)", "T1 construct": "host or cells: Chinese hamster ovary (CHO) cells, cotransfected with pCEP-Gα16", "T1 sequence (P08913 1-465)": "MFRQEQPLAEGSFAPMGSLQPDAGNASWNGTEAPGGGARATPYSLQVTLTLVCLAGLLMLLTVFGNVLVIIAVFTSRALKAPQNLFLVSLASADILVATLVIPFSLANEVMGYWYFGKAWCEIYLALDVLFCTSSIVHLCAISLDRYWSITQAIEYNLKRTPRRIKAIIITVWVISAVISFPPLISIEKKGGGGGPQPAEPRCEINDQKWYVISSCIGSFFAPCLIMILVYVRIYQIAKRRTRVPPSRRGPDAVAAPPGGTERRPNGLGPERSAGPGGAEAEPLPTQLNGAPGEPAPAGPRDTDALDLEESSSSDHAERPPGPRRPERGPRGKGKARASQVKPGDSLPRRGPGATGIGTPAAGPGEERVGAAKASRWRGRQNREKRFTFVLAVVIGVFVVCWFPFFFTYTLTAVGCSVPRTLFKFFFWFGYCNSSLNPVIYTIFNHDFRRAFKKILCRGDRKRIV", "assay": "Determination of alpha2A antagonistic activity in vitro (intracellular calcium, FLIPR Calcium 3)", "assay_type": "cell-based", "settings": "CHO cells stably transfected with human alpha2A receptor and Gα16; stimulated with 100 nM adrenaline or 200 nM noradrenaline; 37° C.", "procedure": "(§1) Experiment 1: Determination of alpha2A and alpha2C Antagonistic Activity In Vitro\n(§2) Chinese hamster ovary (CHO) cells stably transfected with human alpha2A or alpha2C receptors (University of Turku, Finland) were cotransfected with the expression vector pCEP-Gα16 (Molecular Devices, CA, USA) were used in this experiment. The cells were maintained at 37° C. in a 5% CO2/95% air atmosphere. The cells were cultured in HAM F-12 medium supplemented with 10% FCS, 25 mM HEPES, 100 IU/ml penicillin, 100 μg/ml streptomycin, 500 μg/ml geneticin and 240 μg/ml hygromycin B. The cells were subcultured twice weekly with 0.25% trypsin and 1 mM EDTA. The subculture ratio was 1:5-1:20. The growth medium was changed every 2 or 3 days. All cell culture reagents were from Gibco. The day before the experiment the cells were plated into black-walled, clear bottom 96-well plates at a density of 30,000-45,000 cells/well.\n(§3) The growth medium was removed and the cells were incubated with the test compounds and the FLIPR Calcium 3 Assay reagent (Molecular Devices, CA, USA) for 1 h at 37° C. in dark. The test compounds (concentrations in cells 100 pM-10 μM) were dissolved in Probenecid-Ringer consisting of 150 mM NaCl, 3 mM KCl, 1.2 mM MgCl2, 1 mM CaCl2, 5 mM glucose, 20 mM HEPES and 2.5 mM probenecid (pH 7.4 adjusted with 1.0 M NaOH). The osmolarity was adjusted to 322 milliosmoles with Osmostat® OM-6020 osmometer (DIC Kyoto Daiichi Kagagu Co. Ltd, Japan). […] All experiments were performed at 37° C. The test compounds dissolved in Probenecid-Ringer were applied by FLEX station at 17 s time point. […] In order to determine antagonism, the cells were stimulated either with 100 nM adrenaline or 200 nM noradrenaline and the test compounds were added to the cells at least 5 min before the experiment. Typically, there were four replicates at each concentration and seven different dose levels. For example, if the number of plates from which results were obtained was three, 84 (4*7*3) wells were thus measured to construct dose-response relationship. The samples were excited at 485 nm and emission was detected at 525 nm with a 515 nm cut-off filter. Reading time was 60 s per well and the photomultiplier sensitivity value was set to 15. The minimum fluorescence value subtracted from the maximum value for each well was used in the calculations. SOFTmax PRO version 3.2 software was used for analyzing the results. Fitting of the antagonist dose-response results was performed with the free Hill equation and the IC50 values were fitted with Michaelis-Menten equation in Sigma Plot 8.0."}, "human alpha2C receptors": {"target": "T2, human alpha2C receptors (Homo sapiens, UniProt P18825)", "T2 construct": "host or cells: Chinese hamster ovary (CHO) cells, cotransfected with pCEP-Gα16", "T2 sequence (P18825 1-462)": "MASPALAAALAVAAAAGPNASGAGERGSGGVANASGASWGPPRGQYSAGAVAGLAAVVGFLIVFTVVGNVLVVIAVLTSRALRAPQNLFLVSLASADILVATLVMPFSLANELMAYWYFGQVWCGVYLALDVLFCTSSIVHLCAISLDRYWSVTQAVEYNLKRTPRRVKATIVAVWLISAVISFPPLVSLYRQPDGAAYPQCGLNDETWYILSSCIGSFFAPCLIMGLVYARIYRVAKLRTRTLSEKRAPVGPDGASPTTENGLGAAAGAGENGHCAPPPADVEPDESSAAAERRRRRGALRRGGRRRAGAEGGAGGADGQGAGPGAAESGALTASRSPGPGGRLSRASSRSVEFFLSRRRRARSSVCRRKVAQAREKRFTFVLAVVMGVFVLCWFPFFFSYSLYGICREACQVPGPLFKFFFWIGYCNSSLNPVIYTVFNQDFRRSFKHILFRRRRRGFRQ", "assay": "Determination of alpha2C antagonistic activity in vitro (intracellular calcium, FLIPR Calcium 3)", "assay_type": "cell-based", "procedure": "as §1, §2, §3"}, "[1]": {"settings": "CHO cells stably transfected with human alpha2C receptor and Gα16, stimulated with 100 nM adrenaline or 200 nM noradrenaline, 37° C., read-out: IC50/nM Alpha2C"}}, "note": "Read-outs that look alike come from different tables or passages of the source.", "data": [{"smiles": "COCc1ccccc1N1CCN(C[C@H]2COc3ccccc3O2)CC1", "note": "[Example 17, (S)-1-((2,3-Dihydrobenzo[b][1,4]dioxin-2-yl)methy)-4-(2-(methoxymethyl)phenyl)piperazine]", "values": [{"measurement": "IC50", "setting": "human alpha2A receptors", "result": 2180, "unit": "nM"}, {"measurement": "IC50", "setting": "human alpha2C receptors; [1]", "result": 8.2, "unit": "nM"}]}, {"smiles": "COCc1ccccc1N1CCN(C[C@@H]2COc3ccccc3O2)CC1", "note": "[Example 18, (R)-1-((2,3-Dihydrobenzo[b][1,4]dioxin-2-yl)methyl)-4-(2-(methoxymethyl)phenyl)piperazine]", "values": [{"measurement": "IC50", "setting": "human alpha2A receptors", "result": 41100, "unit": "nM"}, {"measurement": "IC50", "setting": "human alpha2C receptors; [1]", "result": 134, "unit": "nM"}]}, {"smiles": "OCc1c(F)cccc1N1CCN(CC2COc3ccccc3O2)CC1", "note": "(stereo not drawn) [Example 23, (2-(4-((2,3-Dihydrobenzo[b][1,4]dioxin-2-yl)methyl)piperazin-1-yl)-6-fluorophenyl)methanol]", "values": [{"measurement": "IC50", "setting": "human alpha2A receptors", "result": 10700, "unit": "nM"}, {"measurement": "IC50", "setting": "human alpha2C receptors; [1]", "result": 30.6, "unit": "nM"}]}, {"smiles": "c1coc(-c2ccccc2N2CCN(C[C@H]3COc4ccccc4O3)CC2)c1", "note": "[Example 29, (S)-1-((2,3-Dihydrobenzo[b][1,4]dioxin-2-yl)methyl)-4-(2-(furan-2-yl)phenyl)piperazine]", "values": [{"measurement": "IC50", "setting": "human alpha2A receptors", "result": 12700, "unit": "nM"}, {"measurement": "IC50", "setting": "human alpha2C receptors; [1]", "result": 18, "unit": "nM"}]}, {"smiles": "Cc1ccccc1N1CCN(C[C@H]2COc3ccccc3O2)CC1", "note": "[Example 31, (S)-1-((2,3-Dihydrobenzo[b][1,4]dioxin-2-yl)methyl)-4-o-tolylpiperazine]", "values": [{"measurement": "IC50", "setting": "human alpha2A receptors", "result": 16900, "unit": "nM"}, {"measurement": "IC50", "setting": "human alpha2C receptors", "result": 17.6, "unit": "nM"}]}, {"smiles": "COC(=O)c1ccccc1N1CCCN(CC2COc3ccccc3O2)CC1", "note": "(stereo not drawn) [Example 36, Methyl 2-(4-((2,3-dihydrobenzo[b][1,4]dioxin-2-yl)methyl)-1,4-diazepan-1-yl)benzoate]", "values": [{"measurement": "IC50", "setting": "human alpha2A receptors", "result": 3900, "unit": "nM"}, {"measurement": "IC50", "setting": "human alpha2C receptors; [1]", "result": 13.7, "unit": "nM"}]}]}
